Measured values published in US11498920B2, “4-(1H-imidazol-5-yl)-1H-pyrrolo[2, 3-b] pyridines for use in the treatment of leukaemias, lymphomas and solid tumors” (MASARYKOVA UNIVERZITA, priority 2018, dated 2022).

system: Maver-1 cells (mantle cell lymphoma); experiment: Cytotoxicity, TMRE flow cytometry viability, Maver-1 cells (Example II.1); type: cell-based; details: Homo sapiens, Maver1, 24 hours, TMRE positive cells normalized to control, ratio to PF670462, <1 = higher cytotoxicity than PF670462, read-out: Viability of cells, Compound of formula I (100 μM), relative to PF670462 (100 μM), Maver-1 cells (mantle cell lymphoma)
Procedure: (§1) The leukemia and lymphoma-derived cell lines [MEC-1 cell line (derived from chronic lymphocytic leukemia—CLL), Nalm-16 (acute lymphocytic leukemia—ALL), K562 (chronic myeloid leukemia—CML), HL-60 (acute myeloid leukemia—AML), Maver-1 and Mino (mantle cell lymphoma—MCL), BL-41 (Burkitt lymphoma—BL), WSU-NHL (follicular lymphoma—FL), SUDHL (diffuse large B-cell lymphoma—DLBCL)], primary CLL cells and nonmalignant control primary cells were cultured in suspension in flasks under the following conditions: RPMI 1640 medium (Hyclone) supplemented with 10% fetal bovine serum (FBS, Gibco) and 1% penicillin/streptomycin (Life Technologies), 37° C., 5% CO2 and 95% relative humidity, with optimal culture cell density 5×10^6 cells/mL in case of primary cells and 0.5-1×10^6 cells/mL in case of cell lines. The adherent cell lines [A375 (derived from malignant melanoma), MDA-MB-231 and MCF-7 (breast cancer), MIA-PA-CA and PANC1 (pancreatic cancer), PC3 (prostate cancer), OVCAR4 (ovarian cancer) and HEPG2 (hepatocellular carcinoma)] were cultured on plates under the same conditions using RPMI1640 or DMEM medium (Gibco) according to instructions provided by the distributor (DSMZ/ATCC).
(§2) Cytotoxicity of compounds of formula I was tested in two models representative for leukemia (primary CLL cells) and lymphoma (Maver-1 cells). The primary CLL cells and Maver-1 cells (MCL-derived) were incubated with inhibitors at 100 μM concentration or corresponding amount of solvent (DMSO, Sigma Aldrich) as 0.1×10^6 cells/200 μl per well in a 96-well plate. Experiments were performed in technical duplicates. Viability of cells was assessed after 6 hours in case of primary CLL cells and after 24 hours in case of Maver-1 cells.
(§3) Apoptosis-induced reduction of mitochondrial potential is detected as lower TMRE fluorescence. […] Relative values are presented, showing ratio to the effect of PF670462 (as the closest prior art). Relative value <1 indicates a higher cytotoxicity than PF670462.

SMILES	viability at 100 µM [%]
Fc1ccc(-c2ncn(Cc3cscn3)c2-c2ccnc3[nH]ccc23)cc1 [Preparative Example 127, 4-((4-(4-fluorophenyl)-5-(1H-pyrrolo[2,3-b]pyridin-4-yl)-1H-imidazol-1-yl)methyl)thiazole]	72
CC(c1cnn(C)c1)n1cnc(-c2ccc(F)cc2)c1-c1ccnc2[nH]ccc12 (stereo not shown) [Preparative Example 145]	42
Cn1cc(Cn2cnc(-c3ccc(F)cc3)c2-c2ccnc3[nH]ccc23)cn1 [Preparative Example 93]	75
Fc1ccc(-c2ncn(Cc3ccccc3)c2-c2ccnc3[nH]ccc23)nc1 [Preparative Example 184, 4-(1-benzyl-4-(5-fluoropyridin-2-yl)-1H-imidazol-5-yl)-1H-pyrrolo[2,3-b]pyridine]	57
Cc1ncc(Cn2cnc(-c3ccc(F)cc3)c2-c2ccnc3[nH]ccc23)s1 [Preparative Example 152, 5-((4-(4-fluorophenyl)-5-(1H-pyrrolo[2,3-b]pyridin-4-yl)-1H-imidazol-1-yl)methyl)-2-methylthiazole]	62

system: primary CLL cells; experiment: Cytotoxicity, TMRE flow cytometry viability, primary CLL cells (Example II.1); type: cell-based; details: Homo sapiens, CLL cell, 6 hours, TMRE positive cells normalized to control, ratio to PF670462, <1 = higher cytotoxicity than PF670462, read-out: Viability of cells, Compound of formula I (100 μM), relative to PF670462 (100 μM), CLL primary cells
Procedure: as §1, §2, §3

SMILES	viability at 100 µM [%]
Fc1ccc(-c2ncn(C3CCCC3)c2-c2ccnc3[nH]ccc23)cc1 [Preparative Example 18, 4-(1-cyclopentyl-4-(4-fluorophenyl)-1H-imidazol-5-yl)-1H-pyrrolo[2,3-b]pyridine]	33
Fc1ccc(-c2ncn(C3CCC3)c2-c2ccnc3[nH]ccc23)cc1 [Preparative Example 17, 4-(1-cyclobutyl-4-(4-fluorophenyl)-1H-imidazol-5-yl)-1H-pyrrolo[2,3-b]pyridine]	52
Fc1ccc(-c2ncn(C34CCN(CC3)C4)c2-c2ccnc3[nH]ccc23)cc1 [Preparative Example 86, 4-(1-((1r,4r)-1-azabicyclo[2.2.1]heptan-4-yl)-4-(4-fluorophenyl)-1H-imidazol-5-yl)-1H-pyrrolo[2,3-b]pyridine]	76
Fc1ccc(-c2ncn(Cc3cnsc3)c2-c2ccnc3[nH]ccc23)cc1 [Preparative Example 130, 4-((4-(4-fluorophenyl)-5-(1H-pyrrolo[2,3-b]pyridin-4-yl)-1H-imidazol-1-yl)methyl)isothiazole]	89
CC(=O)N1CCC(n2cnc(-c3ccc(F)cc3)c2-c2ccnc3[nH]ccc23)CC1 [Preparative Example 68, 1-(4-(4-(4-fluorophenyl)-5-(1H-pyrrolo[2,3-b]pyridin-4-yl)-1H-imidazol-1-yl)piperidin-1-yl)ethan-1-one]	81
Cn1cnc(-c2ccc(F)cc2)c1-c1ccnc2[nH]ccc12 [Preparative Example 25]	81
O[C@H]1CC[C@H](n2cnc(-c3ccc(F)cc3)c2-c2ccnc3[nH]ccc23)CC1 [Preparative Example 32, trans-4-(4-(4-fluorophenyl)-5-(1H-pyrrolo[2,3-b]pyridin-4-yl)-1H-imidazol-1-yl)cyclohexan-1-ol]	67
Cn1ccc(Cn2cnc(-c3ccc(F)c(Cl)c3)c2-c2ccnc3[nH]ccc23)n1 [Preparative Example 143, 4-(4-(3-chloro-4-fluorophenyl)-1-((1-methyl-1H-pyrazol-3-yl)methyl)-1H-imidazol-5-yl)-1H-pyrrolo[2,3-b]pyridine]	66
Fc1ccc(-c2ncn(CCN3CCOCC3)c2-c2ccnc3[nH]ccc23)cc1 [Preparative Example 12, 4-(2-(4-(4-fluorophenyl)-5-(1H-pyrrolo[2,3-b]pyridin-4-yl)-1H-imidazol-1-yl)ethyl)morpholine]	80
CC(C)CCn1cnc(-c2ccc(F)cc2)c1-c1ccnc2[nH]ccc12 [Preparative Example 15, 4-(4-(4-fluorophenyl)-1-isopentyl-1H-imidazol-5-yl)-1H-pyrrolo[2,3-b]pyridine]	13
c1cncc(-c2ncn(C3CCCCC3)c2-c2ccnc3[nH]ccc23)c1 [Preparative Example 44]	81
CN(C)CCn1cnc(-c2ccc(F)cc2)c1-c1ccnc2[nH]ccc12 [Preparative Example 21]	72
Fc1ccc(-c2ncn(Cc3ccncc3)c2-c2ccnc3[nH]ccc23)cc1 [Preparative Example 83, 4-(4-(4-fluorophenyl)-1-(pyridin-4-ylmethyl)-1H-imidazol-5-yl)-1H-pyrrolo[2,3-b]pyridine]	78
CS(=O)(=O)N[C@H]1CC[C@H](n2cnc(-c3ccc(F)cc3)c2-c2ccnc3[nH]ccc23)CC1 [Preparative Example 79, N-(trans-4-(4-(4-fluorophenyl)-5-(1H-pyrrolo[2,3-b]pyridin-4-yl)-1H-imidazol-1-yl)cyclohexyl)methanesulfonamide]	86
Fc1ccc(-c2ncn(C3CCOC3)c2-c2ccnc3[nH]ccc23)cc1 (stereo not shown) [Preparative Example 16, 4-(4-(4-fluorophenyl)-1-(tetrahydrofuran-3-yl)-1H-imidazol-5-yl)-1H-pyrrolo[2,3-b]pyridine]	67
C=C(C)Cn1cnc(-c2ccc(F)cc2)c1-c1ccnc2[nH]ccc12 [Preparative Example 30, 4-(4-(4-fluorophenyl)-1-(2-methylallyl)-1H-imidazol-5-yl)-1H-pyrrolo[2,3-b]pyridine]	69
CN1CCC(O)(Cn2cnc(-c3ccc(F)cc3)c2-c2ccnc3[nH]ccc23)CC1 [Preparative Example 119, 4-((4-(4-fluorophenyl)-5-(1H-pyrrolo[2,3-b]pyridin-4-yl)-1H-imidazol-1-yl)methyl)-1-methylpiperidin-4-ol]	87
CC(C)OCCn1cnc(-c2ccc(F)cc2)c1-c1ccnc2[nH]ccc12 [Preparative Example 20, 4-(4-(4-fluorophenyl)-1-(2-isopropoxyethyl)-1H-imidazol-5-yl)-1H-pyrrolo[2,3-b]pyridine]	68
O[C@H]1CC[C@@H](n2cnc(-c3ccc(F)cc3)c2-c2ccnc3[nH]ccc23)CC1 [Preparative Example 31]	78
CO[C@H]1CC[C@H](n2cnc(-c3ccc(F)cc3)c2-c2ccnc3[nH]ccc23)CC1 [Preparative Example 28, 4-(4-(4-fluorophenyl)-1-(trans-4-methoxycyclohexyl)-1H-imidazol-5-yl)-1H-pyrrolo[2,3-b]pyridine]	67
O[C@H]1CCC[C@H](n2cnc(-c3ccc(F)cc3)c2-c2ccnc3[nH]ccc23)C1 [Preparative Example 158, (1S,3S)-3-(4-(4-fluorophenyl)-5-(1H-pyrrolo[2,3-b]pyridin-4-yl)-1H-imidazol-1-yl)cyclohexan-1-ol]	76
CC(=O)N[C@H]1CC[C@H](n2cnc(-c3ccc(F)cc3)c2-c2ccnc3[nH]ccc23)CC1 [Preparative Example 78, N-(trans-4-(4-(4-fluorophenyl)-5-(1H-pyrrolo[2,3-b]pyridin-4-yl)-1H-imidazol-1-yl)cyclohexyl)acetamide]	87
Fc1ccc(-c2ncn(C3CCOCC3)c2-c2ccnc3[nH]ccc23)cc1 [Preparative Example 13, 4-(4-(4-fluorophenyl)-1-(tetrahydro-2H-pyran-4-yl)-1H-imidazol-5-yl)-1H-pyrrolo[2,3-b]pyridine]	47
